# In patent publication US10513521B2, “Compositions and methods for inhibiting BMP” (The Brigham and Women's Hospital, Inc., priority 2014, dated 2019):
# Legend:
# [1] = target: ALK1 (Homo sapiens, UniProt P37023); experiment: TR-FRET enzymatic ALK kinase assay, ALK1
# Experimental: (§1) Briefly, the ALKs enzymatic assay was initiated by dispense 2.5 μl enzyme in 1× kinase reaction buffer. The assay plate was then added with compounds followed by incubation at room temperature for 10 minutes. Then 2.5 μl/well substrate was added.
# [2] = target: T1, ALK2 (Homo sapiens, UniProt Q04771); experiment: TR-FRET enzymatic ALK kinase assay, ALK2
# T1 sequence (Q04771 21-509): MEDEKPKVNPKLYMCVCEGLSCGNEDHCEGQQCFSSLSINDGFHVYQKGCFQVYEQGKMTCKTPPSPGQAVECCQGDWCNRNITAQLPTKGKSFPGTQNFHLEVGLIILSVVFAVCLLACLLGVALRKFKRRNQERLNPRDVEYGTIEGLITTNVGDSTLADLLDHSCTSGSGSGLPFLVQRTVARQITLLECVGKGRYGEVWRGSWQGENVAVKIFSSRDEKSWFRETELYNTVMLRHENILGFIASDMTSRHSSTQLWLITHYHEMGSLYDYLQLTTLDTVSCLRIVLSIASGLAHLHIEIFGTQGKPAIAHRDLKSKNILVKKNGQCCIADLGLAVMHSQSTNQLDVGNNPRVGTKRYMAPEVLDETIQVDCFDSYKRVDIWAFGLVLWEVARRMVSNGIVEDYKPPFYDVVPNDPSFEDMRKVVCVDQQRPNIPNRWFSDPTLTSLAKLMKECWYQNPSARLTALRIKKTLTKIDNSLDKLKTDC
# Experimental: as §1
# [3] = target: ALK3 (Homo sapiens, UniProt P36894); experiment: TR-FRET enzymatic ALK kinase assay, ALK3
# Experimental: as §1
# [4] = target: T2, ALK4 (Homo sapiens, UniProt P36896); experiment: TR-FRET enzymatic ALK kinase assay, ALK4
# T2 sequence (P36896 24-505): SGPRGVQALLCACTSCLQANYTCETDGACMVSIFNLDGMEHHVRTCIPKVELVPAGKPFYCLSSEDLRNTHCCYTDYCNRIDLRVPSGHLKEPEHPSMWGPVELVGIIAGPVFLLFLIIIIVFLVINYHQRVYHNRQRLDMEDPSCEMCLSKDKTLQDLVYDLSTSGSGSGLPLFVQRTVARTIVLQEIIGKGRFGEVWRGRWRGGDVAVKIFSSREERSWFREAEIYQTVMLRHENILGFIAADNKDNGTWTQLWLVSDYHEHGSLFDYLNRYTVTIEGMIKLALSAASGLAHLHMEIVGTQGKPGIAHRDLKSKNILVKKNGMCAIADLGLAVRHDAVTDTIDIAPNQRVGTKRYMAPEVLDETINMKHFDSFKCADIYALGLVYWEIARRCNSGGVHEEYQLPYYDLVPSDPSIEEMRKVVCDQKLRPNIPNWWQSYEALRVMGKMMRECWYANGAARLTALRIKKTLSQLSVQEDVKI
# Experimental: as §1
# [5] = target: T3, ALK5 (Homo sapiens, UniProt P36897); experiment: TR-FRET enzymatic ALK kinase assay, ALK5
# T3 sequence (P36897 34-503): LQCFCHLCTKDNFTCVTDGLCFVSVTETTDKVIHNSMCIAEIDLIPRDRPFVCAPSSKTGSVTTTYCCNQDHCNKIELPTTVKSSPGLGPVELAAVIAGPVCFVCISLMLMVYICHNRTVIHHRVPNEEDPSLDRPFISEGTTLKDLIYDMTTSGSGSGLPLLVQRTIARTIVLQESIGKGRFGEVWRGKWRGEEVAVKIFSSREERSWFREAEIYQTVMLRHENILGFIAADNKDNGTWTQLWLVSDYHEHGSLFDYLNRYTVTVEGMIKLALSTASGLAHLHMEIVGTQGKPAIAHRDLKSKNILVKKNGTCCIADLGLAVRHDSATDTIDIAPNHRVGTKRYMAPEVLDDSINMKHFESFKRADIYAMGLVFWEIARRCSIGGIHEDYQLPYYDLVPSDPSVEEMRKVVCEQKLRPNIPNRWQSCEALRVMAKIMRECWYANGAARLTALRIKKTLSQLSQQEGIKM
# Experimental: Six ALK kinase enzyme assays were developed for determination of compound activities on ALK1, ALK2, ALK3, ALK4, ALK5 and ALK6.
# as §1
# [6] = target: ALK6 (Homo sapiens, UniProt O00238); experiment: TR-FRET enzymatic ALK kinase assay, ALK6
# Chain of ALK6 (O00238 14-502): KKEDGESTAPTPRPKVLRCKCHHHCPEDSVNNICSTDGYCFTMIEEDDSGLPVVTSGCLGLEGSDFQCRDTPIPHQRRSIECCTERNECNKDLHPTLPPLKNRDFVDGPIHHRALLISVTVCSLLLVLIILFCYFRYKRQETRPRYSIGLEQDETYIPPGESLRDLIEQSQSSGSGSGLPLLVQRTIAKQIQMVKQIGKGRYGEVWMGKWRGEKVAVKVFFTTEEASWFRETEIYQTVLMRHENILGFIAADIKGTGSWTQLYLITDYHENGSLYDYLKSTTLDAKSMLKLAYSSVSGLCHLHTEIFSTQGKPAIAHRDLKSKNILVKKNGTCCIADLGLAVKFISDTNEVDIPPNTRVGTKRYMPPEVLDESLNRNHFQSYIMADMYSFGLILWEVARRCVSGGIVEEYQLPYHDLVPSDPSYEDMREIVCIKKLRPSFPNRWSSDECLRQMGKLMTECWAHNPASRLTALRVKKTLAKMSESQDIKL
# Experimental: as §1
# Chain of ALK3 (P36894 24-532): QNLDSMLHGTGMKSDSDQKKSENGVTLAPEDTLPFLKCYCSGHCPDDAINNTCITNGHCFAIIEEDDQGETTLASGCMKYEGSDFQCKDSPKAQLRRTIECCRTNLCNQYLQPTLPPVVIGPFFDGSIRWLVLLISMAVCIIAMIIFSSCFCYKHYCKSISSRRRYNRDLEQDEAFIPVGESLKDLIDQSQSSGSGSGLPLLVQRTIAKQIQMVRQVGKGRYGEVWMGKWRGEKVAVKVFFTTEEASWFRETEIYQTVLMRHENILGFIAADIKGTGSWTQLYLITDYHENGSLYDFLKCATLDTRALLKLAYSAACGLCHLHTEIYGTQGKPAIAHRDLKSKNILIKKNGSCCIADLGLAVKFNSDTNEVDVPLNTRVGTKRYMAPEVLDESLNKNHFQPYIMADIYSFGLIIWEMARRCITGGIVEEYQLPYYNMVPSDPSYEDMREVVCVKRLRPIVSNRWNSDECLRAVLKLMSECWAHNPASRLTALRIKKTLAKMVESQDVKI
# Chain of ALK1 (P37023 22-503): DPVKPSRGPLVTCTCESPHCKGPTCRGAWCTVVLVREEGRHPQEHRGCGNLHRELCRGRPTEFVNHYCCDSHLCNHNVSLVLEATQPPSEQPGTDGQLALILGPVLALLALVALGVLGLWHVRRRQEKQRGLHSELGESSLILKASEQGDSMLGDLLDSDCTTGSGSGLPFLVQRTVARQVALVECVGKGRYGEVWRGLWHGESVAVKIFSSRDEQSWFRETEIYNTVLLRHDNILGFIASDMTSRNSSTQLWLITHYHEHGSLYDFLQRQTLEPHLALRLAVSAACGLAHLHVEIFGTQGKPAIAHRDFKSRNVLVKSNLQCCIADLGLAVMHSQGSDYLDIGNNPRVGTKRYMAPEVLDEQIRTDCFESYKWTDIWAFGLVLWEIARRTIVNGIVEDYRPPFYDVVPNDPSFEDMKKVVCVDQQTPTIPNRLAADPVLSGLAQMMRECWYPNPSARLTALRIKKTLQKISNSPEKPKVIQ
Structure (SMILES),IC50 [1],IC50 [2],IC50 [3],IC50 [4],IC50 [5],IC50 [6]
"CC(O)c1cccc(-c2cnn3cc(-c4ccc(C5CCNC5)cc4)cnc23)c1 (stereo not drawn) [Compound 130, 1-(3-(6-(4-(pyrrolidin-3-yl)phenyl)pyrazolo[1,5-a]pyrimidin-3-yl)phenyl)ethanol]",610 nM,130 nM,> 10 µM,> 10 µM,> 10 µM,> 10 µM
"CS(=O)(=O)c1cccc(-c2cnn3cc(-c4ccc(CCN5CCOCC5)cc4)cnc23)c1 [Compound 131, 4-(4-(3-(3-(methylsulfonyl)phenyl)pyrazolo[1,5-a]pyrimidin-6-yl)phenethyl)morpholine]",760 nM,150 nM,2.3 µM,> 10 µM,> 10 µM,5.1 µM
"CS(=O)(=O)c1cccc(-c2cnn3cc(-c4ccc(CCN5CCC(O)C5)cc4)cnc23)c1 (stereo not drawn) [Compound 132, 1-(4-(3-(3-(methylsulfonyl)phenyl)pyrazolo[1,5-a]pyrimidin-6-yl)phenethyl)pyrrolidin-3-ol]",630 nM,130 nM,6.4 µM,> 10 µM,> 10 µM,> 10 µM
"CS(=O)(=O)c1cccc(-c2cnn3cc(-c4ccc(CCn5ccnc5)cc4)cnc23)c1 [Compound 133, 6-(4-(2-(1H-imidazol-1-yl)ethyl)phenyl)-3-(3-(methylsulfonyl)phenyl)pyrazolo[1,5-a]pyrimidine]",670 nM,230 nM,> 10 µM,> 10 µM,> 10 µM,> 10 µM
"CC(O)c1cccc(-c2cnn3cc(-c4ccc(C5CCCCN5)cc4)cnc23)c1 (stereo not drawn) [Compound 135, 1-(3-(6-(4-(piperidin-2-yl)phenyl)pyrazolo[1,5-a]pyrimidin-3-yl)phenyl)ethanol]",670 nM,150 nM,> 10 µM,> 10 µM,> 10 µM,> 10 µM
"CC(O)c1cccc(-c2cnn3cc(-c4ccc(C5CCCNC5)cc4)cnc23)c1 (stereo not drawn) [Compound 138, 1-(3-(6-(4-(piperidin-3-yl)phenyl)pyrazolo[1,5-a]pyrimidin-3-yl)phenyl)ethanol]",580 nM,110 nM,4.9 µM,> 10 µM,> 10 µM,> 10 µM
"CS(=O)(=O)c1cccc(-c2cnn3cc(-c4ccc(C5CCCNC5)cc4)cnc23)c1 (stereo not drawn) [Compound 139, 3-(3-(methylsulfonyl)phenyl)-6-(4-(piperidin-3-yl)phenyl)pyrazolo[1,5-a]pyrimidine]",370 nM,89 nM,4.8 µM,> 10 µM,> 10 µM,> 10 µM
"CS(=O)(=O)c1cccc(-c2cnn3cc(-c4ccc(CCN5CCC(O)CC5)cc4)cnc23)c1 [Compound 140, 1-(4-(3-(3-(methylsulfonyl)phenyl)pyrazolo[1,5-a]pyrimidin-6-yl)phenethyl)piperidin-4-ol]",620 nM,140 nM,7.6 µM,> 10 µM,> 10 µM,> 10 µM
"CS(=O)(=O)c1cccc(-c2cnn3cc(-c4ccc(CCN5CCCC(O)C5)cc4)cnc23)c1 (stereo not drawn) [Compound 141, 1-(4-(3-(3-(methylsulfonyl)phenyl)pyrazolo[1,5-a]pyrimidin-6-yl)phenethyl)piperidin-3-ol]",750 nM,98 nM,5.9 µM,> 10 µM,> 10 µM,> 10 µM
"CC(O)c1cccc(-c2cnn3cc(-c4ccc(OCCN5CCCCC5)cc4)cnc23)c1 (stereo not drawn) [Compound 142, 1-(3-(6-(4-(2-(piperidin-1-yl)ethoxy)phenyl)pyrazolo[1,5-a]pyrimidin-3-yl)phenyl)ethanol]",560 nM,110 nM,1.6 µM,> 10 µM,> 10 µM,> 10 µM
"NC(c1ccc(-c2cnn3cc(-c4ccc(OCCN5CCCCC5)cc4)cnc23)cc1)C(F)(F)F (stereo not drawn) [Compound 144, 2,2,2-trifluoro-1-(4-(6-(4-(2-(piperidin-1-yl)ethoxy)phenyl)pyrazolo[1,5-a]pyrimidin-3-yl)phenyl)ethanamine]",> 10000 nM,> 10000 nM,> 10 µM,> 10 µM,> 10 µM,> 10 µM
"CC(O)c1cccc(-c2cnn3cc(-c4ccc(OCCN5CCCC5)cc4)cnc23)c1 (stereo not drawn) [Compound 145, 1-(3-(6-(4-(2-(pyrrolidin-1-yl)ethoxy)phenyl)pyrazolo[1,5-a]pyrimidin-3-yl)phenyl)ethanol]",1000 nM,63 nM,2.6 µM,> 10 µM,> 10 µM,> 10 µM
"CC(O)c1cccc(-c2cnn3cc(-c4ccc(CCN5CCCC5)cc4)cnc23)c1 (stereo not drawn) [Compound 146, 1-(3-(6-(4-(2-(pyrrolidin-1-yl)ethyl)phenyl)pyrazolo[1,5-a]pyrimidin-3-yl)phenyl)ethanol]",1400 nM,220 nM,8 µM,> 10 µM,> 10 µM,> 10 µM
"CC(O)c1cccc(-c2cnn3cc(-c4ccc(CCN5CCOCC5)cc4)cnc23)c1 (stereo not drawn) [Compound 147, 1-(3-(6-(4-(2-morpholinoethyl)phenyl)pyrazolo[1,5-a]pyrimidin-3-yl)phenyl)ethanol]",470 nM,170 nM,> 10 µM,> 10 µM,> 10 µM,> 10 µM
"CC(O)c1cccc(-c2cnn3cc(-c4ccc(CCN5CCC(O)C5)cc4)cnc23)c1 (stereo not drawn) [Compound 148, 1-(4-(3-(3-(1-hydroxyethyl)phenyl)pyrazolo[1,5-a]pyrimidin-6-yl)phenethyl)pyrrolidin-3-ol]",790 nM,150 nM,6.4 µM,> 10 µM,> 10 µM,> 10 µM
"C[C@@H](O)c1cccc(-c2cnn3cc(-c4ccc(OCCN5CCCCC5)cc4)cnc23)c1 [Compound 149, (R)-1-(3-(6-(4-(2-(piperidin-1-yl)ethoxy)phenyl)pyrazolo[1,5-a]pyrimidin-3-yl)phenyl)ethanol]",4500 nM,180 nM,6.8 µM,> 10 µM,> 10 µM,> 10 µM
"CC(O)c1cccc(-c2cnn3cc(-c4ccc(CCN5CCCC(O)C5)cc4)cnc23)c1 (stereo not drawn) [Compound 150, 1-(4-(3-(3-(1-hydroxyethyl)phenyl)pyrazolo[1,5-a]pyrimidin-6-yl)phenethyl)piperidin-3-ol]",710 nM,140 nM,4.1 µM,> 10 µM,> 10 µM,> 10 µM
"CC(O)c1cccc(-c2cnn3cc(-c4ccc(CCN5CCC(O)CC5)cc4)cnc23)c1 (stereo not drawn) [Compound 151, 1-(4-(3-(3-(1-hydroxyethyl)phenyl)pyrazolo[1,5-a]pyrimidin-6-yl)phenethyl)piperidin-4-ol]",820 nM,110 nM,4.3 µM,> 10 µM,> 10 µM,> 10 µM
"NC(c1cccc(-c2cnn3cc(-c4ccc(OCCN5CCCCC5)cc4)cnc23)c1)C(F)(F)F (stereo not drawn) [Compound 153, 2,2,2-trifluoro-1-(3-(6-(4-(2-(piperidin-1-yl)ethoxy)phenyl)pyrazolo[1,5-a]pyrimidin-3-yl)phenyl)ethanamine]",1400 nM,110 nM,4.3 µM,> 10 µM,> 10 µM,> 10 µM
